melting point | Compound
85 °C | CCOC(=Cc1ccc(-c2cccc(N(C)C(=O)NC3CCCCC3)c2)cc1)C(=O)O
101 to 102 °C | CC(C(=O)O)c1ccc(C2=CCCCC2)cc1 (configuration not stated)
> 200 °C | CSc1cc2c(cc1C(F)(F)F)N(C(=O)Nc1ccc(C(=O)O)cc1)CC2
195 to 197 °C | CC(C)[C@H](NC(=O)N(C)Cc1nccs1)C(=O)N[C@@H](Cc1ccccc1)C[C@H](O)[C@H](Cc1ccccc1)NC(=O)[C@@H](NC(=O)N(C)Cc1nccs1)C(C)C
55 to 56 °C | O=[N+]([O-])Cc1cccc(OCc2ccccc2)c1
61 to 74 °C | CC(C)(C)c1cc(CCC(=O)OC2CCCCCCCCCCC2OC(=O)CCc2cc(C(C)(C)C)c(O)c(C(C)(C)C)c2)cc(C(C)(C)C)c1O (configuration not stated)
> 270 °C | CCn1c(=O)c2[nH]c(/C=C/c3ccccc3F)nc2n(CC)c1=O
80 to 82 °C | CCOCC1OC(n2cnc3c(NCc4cccc(I)c4)nc(Cl)nc32)C(O)C1O (configuration not stated)
> 300 °C | COc1cccc(CNC(=O)c2nc3sc(C(=O)O)c(C)c3c(=O)[nH]2)c1
141 °C | CCc1cc2c(NC(C)c3ccccc3)ncnc2s1 (configuration not stated)
285 to 287 °C | COc1ccc(C(=O)Nc2c(-c3cc(Cl)ccc3O)c3cc(C(F)(F)F)ccc3[nH]c2=O)cc1
124 to 127 °C | COc1ccc(-c2cc(=O)n(Cc3ccc(Cl)cc3)nc2-c2ccc(OC)cc2)cc1
105 to 107 °C | CCOC(=O)c1cc2cc(-c3ccc(C(C)=O)cc3)ccc2o1
85 to 88 °C | Cn1c(C2CCN(C(=O)OC(C)(C)C)CC2)nc2cc(-c3ccc(S(C)(=O)=O)cc3F)ccc21
63 to 66 °C | O=S(=O)(CCl)Nc1ccnn1-c1c(Cl)cc(C(F)(F)F)cc1Cl
120 to 122 °C | Cc1cc2ccc(Cl)cc2[nH]1
144 to 145 °C | C=CCN1C(=O)c2cccc3c(OCCO)ccc(c23)C1=O
> 250 °C | O=C(O)c1nc2c(=O)[nH]c3cc(C(F)(F)F)ccc3n2c1CP(=O)(O)O
184 to 186 °C | COc1ccc(C(=NO)c2ccccc2F)c(O)c1Cl
92 to 94 °C | CCOC(=O)c1ccc(/C=C(\CCCc2ccc(OC)cc2)Cn2ccnc2)cc1
97 to 99 °C | OC1(c2ccccc2)CSC2=NCN(Cc3ccccc3)CN21 (configuration not stated)
135 to 137 °C | Cc1ccc(S(=O)(=O)OCC2(C)Cc3cc(Cl)cc(O)c3O2)cc1 (configuration not stated)

melting point | Compound
215 to 216 °C | Cc1ccc2c(c1)c1cc(-c3cccc(Br)c3)c(=O)n(C)c1n2C
49 to 50 °C | Cc1c(Br)ccc(F)c1N
74 to 75 °C | CCCCC(CC)Cn1c(=O)nc(N(C)C)n(C)c1=O (configuration not stated)
130 to 131 °C | Nc1nc(NCC2CC2)c2ncn(C3C=CC(CO)C3)c2n1 (configuration not stated)
259 to 260 °C | Cc1nccc2[nH]c(=O)c(-c3noc(C4CC4)n3)cc12
146 to 150 °C | CCOC(=NS(=O)(=O)c1ccccc1)N1Cc2ccccc2-c2ccccc2C1
193 to 198 °C | CC(=O)Nc1cc(C)c2c(c1O)C(=O)CC2
156 °C | Cn1cnc(COc2ccc(-c3cc(-c4nc(C(C)(C)C)[nH]c4-c4ccccn4)ccn3)cc2)c1
70 to 71 °C | CCOC(=O)N1CCC(SC(c2ccccc2)c2ccccc2)CC1
54 to 58 °C | CC1CCN(c2cc3nc(C(C)(C)C)sc3cc2N=C=S)CC1
> 300 °C | CC(C)[Si](C#Cc1ccc2c(c1)c1cccc3c1c2c1cccc2c4cc(C#C[Si](C(C)C)(C(C)C)C(C)C)ccc4c3c21)(C(C)C)C(C)C
184 to 186 °C | O=C(Nc1c[nH]nc1C(=O)NCCNc1ccccc1)c1ccccn1
> 300 °C | COC[C@H]1CCCN1NC(=O)Nc1cccc2c1C(=O)c1c-2n[nH]c1-c1ccc(C(=O)N2CCNCC2)s1
218 to 221 °C | O=C(/C=C/c1c[nH]c2ccc(OCc3ccccc3)cc12)c1ccncc1
169 to 171 °C | COCC1CCCN1S(=O)(=O)c1ccc2c(c1)C1(OCCCO1)C1=NCC(C)(C)CN12 (configuration not stated)
193 to 195 °C | C[C@@H]1C[C@H](C)CN(S(=O)(=O)c2ccc(Cl)c(C(=O)NCCCC(=O)O)c2)C1
142 to 145 °C | CC(=O)Oc1c(C)ccc2c1N=CC1CCCN1C2=O (configuration not stated)
91 to 95 °C | COC(=O)c1cccc(CBr)c1[N+](=O)[O-]
64 to 66 °C | CCCn1c(OCC2CC2(Cl)Cl)nc2sccc2c1=O (configuration not stated)
78 to 80 °C | Cc1cc(-c2cc(C(F)(F)F)nn2-c2ccc(S(N)(=O)=O)c(F)c2)ccc1-c1ccco1
147 to 148 °C | O=C(CCCc1ccccc1)N[C@H](Cc1ccc(F)cc1)[C@@H](O)c1ccc(F)cc1 (racemic)
211 to 214 °C | COc1ccc(COc2ccc(/C=C/c3cc(/C=C/c4ccc5cc[nH]c5c4)n[nH]3)c(OC)c2)cc1

melting point | Compound
184 to 185 °C | COc1cccc(CCc2cc(C(C)(C)C)c(O)c(C(C)(C)C)c2)c1NC(=O)NC1CCN(Cc2ccccc2)CC1
128 °C | CC(=O)c1cc(NC(=O)NCCCC(C)CNC(=O)Nc2cc(C(C)=O)cc(C(C)=O)c2)cc(C(C)=O)c1 (configuration not stated)
78 °C | c1ccc2cc(OCCCNN3CCCCC3)ccc2c1
58 to 60 °C | COC(=O)c1ccc(OCC=O)cc1
174 to 177 °C | c1ccc(C(NC23CC4CC(C2)CC(OCc2ccc(-c5nc6ccccc6o5)cc2)(C4)C3)(c2ccccc2)c2ccccc2)cc1
245 to 246 °C | CC1(C)OC(=O)Nc2ccc(-c3cc(Cl)cc(Cl)c3)cc21
238 to 240 °C | CCCOc1ccccc1-c1[nH]c(=O)c(C(N)=O)cc1C
140 to 142 °C | FC(F)(F)Oc1ccc(C=CC(C=Cc2ccc(OC(F)(F)F)cc2)=NNC2=NCCCN2)cc1
144 to 145 °C | Clc1ccc(-n2nc3c(c2Br)CSCC3)cc1
97 to 98 °C | CSC1C2=C(CCCC2)C(=O)N1c1ccc(Cl)cc1F (configuration not stated)
70 to 72 °C | Cc1ncc(-c2ccc(Cl)cc2)cc1C(=O)OC(C)(C)C
209 to 210 °C | C=C(C)Cc1c(C)c(NC(C)=O)c(C)c(C)c1O
219 °C | CC1(C)Oc2ccc(Br)cc2C(n2ccccc2=O)=C1CN(O)C(N)=S
72 to 76 °C | Clc1cc2c(cc1CN1CCN(CCOc3ccccc3)CC1)OCO2
150 °C | Cc1cc(-n2ccnc2)c2cccc(OCc3c(Cl)ccc(S(=O)(=O)N4CCC[C@H]4C(=O)NCC4CCNCC4)c3Cl)c2n1
132 to 134 °C | Cc1oc2ccc(C#N)cc2c1Cl
180 to 186 °C | CCOC(=O)C(=O)Nc1ccc2[nH]c(=O)oc2c1
165 to 168 °C | O=C(O)CC(CSc1nc2ccccc2[nH]1)C(=O)O (configuration not stated)
91 to 92 °C | O=C(c1cccc(C(F)(F)F)c1)c1cc2c(Br)cccc2o1
64 to 66 °C | CCCCCCCCCOc1ccc(F)c(C(N)=O)c1Cl
121 to 122 °C | CCOC(=O)c1cn(-c2nnc(C)s2)cn1
96 to 97 °C | Cc1cc(=O)[nH]c2c1C(=O)CCC2

melting point | Compound
131 °C | CCCCc1ccc(C(=O)Nc2ccc3cc(CN4CCCC4)cnc3c2C)cc1
312 to 314 °C | O=C(O)c1ccc(-c2ccc3ncnc(Nc4ccc(OCc5cccc(F)c5)c(Cl)c4)c3c2)s1
211 to 212 °C | COc1ccc(N2C(=O)[C@H](O)[C@@H]2c2ccccc2)cc1
151 to 156 °C | O=C(O)c1cc(OCc2ccccc2)c(C(=O)c2c(OCc3ccccc3)cccc2C(=O)OCc2ccccc2)c(OCc2ccccc2)c1
96 to 98 °C | CC(CCCNC(=O)CCCCCBr)C(F)(F)F (configuration not stated)
135 to 137 °C | OCCc1ccc2c(c1)C(O)c1ccccc1CO2 (configuration not stated)
205 to 206 °C | Cn1cc(C2CCN(CCCCNC(=O)c3ccc(-c4ccc(C(F)(F)F)cc4)cc3)CC2)c2ccccc21
84 to 86 °C | Fc1ccc(-c2ccco2)cc1
150 to 152 °C | COC(C)(C)C(=O)O[C@H]1C[C@H](O)C=C2C=C[C@H](C)[C@H](CC[C@@H]3C[C@@H](O)CC(=O)O3)[C@H]21
60 to 65 °C | Cn1cc2ccc(F)cc2c1
167 to 171 °C | Nc1ccc(S(=O)(=O)Nc2ccn(C3CCCC3)c(=O)n2)cc1
76 to 80 °C | CCOc1ccc(CC2NCCc3cc(OC(C)C)c(OC(C)C)cc32)cc1OCC (configuration not stated)
84 °C | O=c1c2ccccc2c(-c2ccccc2)cn1CCCO
104 to 106 °C | C=CCc1ccc(OCCC(C)C)c2c(=O)cc(C(=O)OCC)oc12
58 to 60 °C | CC(C)n1c(=O)nc(-c2cccnc2)c2cc3c(cc21)OCO3
46 to 51 °C | C=C(C(=O)c1ccc(OC)c(Cl)c1Cl)C(C)C
148 °C | CCCc1ccc2nc(F)c(S(N)(=O)=O)n2n1
160 to 162 °C | COc1ccc(-c2cc(-c3ccccc3)[nH]c2C(=O)Nc2ccc(C(=O)NO)o2)cc1
165 to 170 °C | COc1ccccc1-n1c(=O)[nH]c2c(C(N)=O)nc(Nc3ccc(Cn4ccnc4)cc3)nc21
120 to 124 °C | CCN(CC)C(=O)Cc1c(-c2ccc(OC)cc2)nn2c(C)cc(C)nc12

Compound | melting point
CCOC1(C)Oc2cccc(OC(=O)NC)c2O1 (configuration not stated) | 97 to 98.5 °C
CCOC(=O)C1(c2ccccc2)CCN(C2=CCC(C#N)(c3ccccn3)CC2)CC1 (configuration not stated) | 160 °C
CC(C)=Cc1cn(-c2c(Cl)cc(C(F)(F)F)cc2Cl)nc1C#N | 72 to 74 °C
CN1C(=O)CN=C(c2ccccc2F)c2cc(NC(=O)NCc3ccccc3)ccc21 | 174 to 178 °C
N=C(NN)c1cccc(Cc2c[nH]cn2)c1O | 188 °C
COc1cccc(NC(=O)NC2C(=O)N(CC34CC5CC(CC(C5)C3)C4)c3ccccc3N(c3ccccc3)C2=O)c1 (configuration not stated) | 267 to 268 °C
C=CCc1[nH]cc2c1-c1ccc(Cl)cc1C(c1ccccc1F)=NC2 | 212 to 214 °C
CCSCCCN(C)c1c(S(=O)(=O)C(F)(F)F)c(C#N)nn1-c1c(Cl)cc(C(F)(F)F)cc1Cl | 89 °C
O=Cc1ccc(CBr)c(Cl)c1 | 64 to 66 °C
CCOC(C)(C)C#Cc1ncn2c1CN(C)C(=O)c1cc(F)ccc1-2 | 136 to 138 °C
CN1CCC(c2n[nH]c3ccc(F)cc23)CC1 | 202 to 204 °C

— a melting point compilation (Tetko et al.; mined from patent text by program, amines drawn as free bases though some values may be those of a salt)
